# Test results from ChEMBL document CHEMBL4376829, “Discovery and biological evaluation of vinylsulfonamide derivatives as highly potent, covalent TEAD autopalmitoylation inhibitors” (Eur J Med Chem, 2019).
# The source made the active and inactive calls. No cut-off for these calls is given here.
# Key:
# [1] = molecular target: Interleukin-1 receptor-associated kinase 1 (Homo sapiens) (UniProt P51617); assay: Inhibition of recombinant human IRAK1 (194 to end residues) at 10 uM using myelin basic protein as substrate after 40 mins in presence of [gamma33P]ATP by scintillation counting method relative to control
# [2] = molecular target: T1, Transcriptional enhancer factor TEF-3 (Homo sapiens, UniProt Q15561); assay: Binding affinity to N-terminal His6-tagged human TEAD4-YBD (217 to 434 residues) expressed in Escherichia coli C43 (DE3) cells assessed as change in melting temperature at 1:4 ratio by SYPRO-dye based thermal shift assay
# [3] = molecular target: Fibroblast growth factor receptor 4 (Homo sapiens) (UniProt P22455); assay: Inhibition of recombinant human FGFR4 (442 to 755 residues) at 10 uM using poly(Glu, Tyr) 4:1 as substrate measured after 40 mins in presence of [gamma33P]ATP by scintillation counting method relative to control
# [4] = molecular target: Calcium/calmodulin-dependent protein kinase type IV (Homo sapiens) (UniProt Q16566); assay: Inhibition of full-length recombinant human Camk4 at 10 uM using calmodulin as substrate after 40 mins by in presence of [gamma33P]ATP by scintillation counting method relative to control
# [5] = organism: Homo sapiens; assay: Inhibition of recombinant human TEC activated F514V mutant (174 to end residues) at 10 uM using EFPIYDFLPAKKK as substrate measured after 40 mins in presence of [gamm33P]ATP by scintillation counting method relative to control
# [6] = molecular target: Histone-arginine methyltransferase CARM1 (Homo sapiens) (UniProt Q86X55); assay: Inhibition of human PRMT4 at 10 uM relative to control
# [7] = system: Transcriptional enhancer factor TEF-3 (Homo sapiens), Q15561 [C330A]; assay: Binding affinity to TEAD4-YBD C330A mutant (unknown origin) assessed as change in melting temperature by SYPRO-dye based thermal shift assay
# [8] = system: CDK18/Cyclin Y (Homo sapiens), Q07002+Q8ND76 [T166M]; assay: Inhibition of recombinant full length human cyclinY/CDK18 T166M mutant at 10 uM using YRRAAVPPSPSLS as substrate measured after 40 mins in presence of [gamma33P]ATP by scintillation counting method relative to control; format: protein-complex assay
# [9] = molecular target: 5'-AMP-activated protein kinase catalytic subunit alpha-1 (Homo sapiens) (UniProt Q13131); assay: Inhibition of recombinant full length human AMPKalpha1 at 10 uM using AMARAASAAALARRR as substrate after 40 mins in presence of [gamma33P]ATP by scintillation counting method relative to control
# [10] = molecular target: Beta-adrenergic receptor kinase 1 (Homo sapiens) (UniProt P25098); assay: Inhibition of full length recombinant human GRK2 at 10 uM using casein as substrate after 40 mins in presence of [gamma33P]ATP by scintillation counting method relative to control
# [11] = organism: Homo sapiens; assay: Inhibition of recombinant human MAPKAPK2 A399G mutant (46 to end residues) at 10 uM using KKLNRTLSVA as substrate measured after 40 mins in presence of [gamma33P]ATP by scintillation counting method relative to control
# [12] = molecular target: Protein kinase C iota type (Homo sapiens) (UniProt P41743); assay: Inhibition of full-length recombinant human PKCiota at 10 uM using ERMRPRKRQGSVRRRV as substrate after 40 mins by in presence of [gamma33P]ATP by scintillation counting method relative to control
# [13] = molecular target: Myosin-IIIb (Homo sapiens) (UniProt Q8WXR4); assay: Inhibition of recombinant full-length human MYO3B (1 to 326 residues) at 10 uM using RLGRDKYKTLRQIRQ as substrate measured after 40 mins in presence of [gamma33P]ATP by scintillation counting method relative to control
# [14] = molecular target: Fatty acid-binding protein, adipocyte (Homo sapiens) (UniProt P15090); assay: Binding affinity to FABP4 (unknown origin) at 1:1 ratio by fluorescence based thermal shift assay
# [15] = molecular target: Interferon-induced, double-stranded RNA-activated protein kinase (Homo sapiens) (UniProt P19525); assay: Inhibition of recombinant human PKR (252 to end residues) at 10 uM using RSRSRSRSRSRSRSR as substrate measured after 40 mins in presence of [gamma33P]ATP by scintillation counting method relative to control
# [16] = molecular target: T1, Transcriptional enhancer factor TEF-3; assay: Inhibition of human HEK293T cells derived YAP interaction with N-terminal His-tagged human TEAD4 YBD domain (217 to 434 residues) expressed in Escherichia coli C43 (DE3) cells at 25 to 200 uM incubated for 2 hrs with TEAD4 followed by YAP lysate addition and measured after 4 hrs by immunoblotting analysis
# [17] = molecular target: DNA (cytosine-5)-methyltransferase 1 (Homo sapiens) (UniProt P26358); assay: Inhibition of human DNMT1 at 10 uM after 1 hr by radioisotope-based assay relative to control
# [18] = system: Glycogen synthase kinase-3 beta (Homo sapiens), P49841 [UNDEFINED MUTATION]; assay: Inhibition of recombinant human GSK3beta H350L mutant (2 to end residues) at 10 uM using phospho GS2 peptide as substrate measured after 40 mins in presence of [gamma33P]ATP by scintillation counting method relative to control
# [19] = molecular target: Cyclin-dependent kinase-like 2 (Homo sapiens) (UniProt Q92772); assay: Inhibition of human CDKL2 at 10 uM by radiometric method relative to control
# [20] = molecular target: T1, Transcriptional enhancer factor TEF-3; assay: Inhibition of FITC-labeled YAP peptide (61 to 100 residues) binding to TEAD4 (unknown origin) preincubated for 1 hr followed by FITC-labeled YAP peptide addition and measured after 30 mins by fluorescence polarization assay
# [21] = molecular target: Serine/threonine-protein kinase mTOR (Homo sapiens) (UniProt P42345); assay: Inhibition of recombinant full-length human mTOR at 10 uM after 40 mins in presence of [gamma33P]ATP by scintillation counting analysis relative to control
# [22] = molecular target: Serine/threonine-protein kinase 17A (Homo sapiens) (UniProt Q9UEE5); assay: Inhibition of full-length recombinant human DRAK1 at 10 uM using KKLNRTLSFAEPG as substrate after 40 mins by in presence of [gamma33P]ATP by scintillation counting method relative to control
# [23] = molecular target: Serine/threonine-protein kinase D3 (Homo sapiens) (UniProt O94806); assay: Inhibition of full-length recombinant human PKD3 at 10 uM using KKLRRTLSVA as substrate after 40 mins by in presence of [gamma33P]ATP by scintillation counting method relative to control
# [24] = molecular target: CDK6/cyclin D3 (Homo sapiens) (UniProt P30281+Q00534); assay: Inhibition of recombinant full-length human CDK6/cyclinD3 at 10 uM using histone H1 as substrate measured after 40 mins in presence of [gamma33P]ATP by scintillation counting method relative to control; format: protein-complex assay
# [25] = molecular target: Receptor-type tyrosine-protein kinase FLT3 (Homo sapiens) (UniProt P36888); assay: Inhibition of recombinant human Flt3 (564 to end residues) at 10 uM using EAIYAAPFAKKK as substrate after 40 mins in presence of [gamma33P]ATP by scintillation counting method relative to control
# Chain of Receptor-type tyrosine-protein kinase FLT3 (Homo sapiens) (P36888 whole entry): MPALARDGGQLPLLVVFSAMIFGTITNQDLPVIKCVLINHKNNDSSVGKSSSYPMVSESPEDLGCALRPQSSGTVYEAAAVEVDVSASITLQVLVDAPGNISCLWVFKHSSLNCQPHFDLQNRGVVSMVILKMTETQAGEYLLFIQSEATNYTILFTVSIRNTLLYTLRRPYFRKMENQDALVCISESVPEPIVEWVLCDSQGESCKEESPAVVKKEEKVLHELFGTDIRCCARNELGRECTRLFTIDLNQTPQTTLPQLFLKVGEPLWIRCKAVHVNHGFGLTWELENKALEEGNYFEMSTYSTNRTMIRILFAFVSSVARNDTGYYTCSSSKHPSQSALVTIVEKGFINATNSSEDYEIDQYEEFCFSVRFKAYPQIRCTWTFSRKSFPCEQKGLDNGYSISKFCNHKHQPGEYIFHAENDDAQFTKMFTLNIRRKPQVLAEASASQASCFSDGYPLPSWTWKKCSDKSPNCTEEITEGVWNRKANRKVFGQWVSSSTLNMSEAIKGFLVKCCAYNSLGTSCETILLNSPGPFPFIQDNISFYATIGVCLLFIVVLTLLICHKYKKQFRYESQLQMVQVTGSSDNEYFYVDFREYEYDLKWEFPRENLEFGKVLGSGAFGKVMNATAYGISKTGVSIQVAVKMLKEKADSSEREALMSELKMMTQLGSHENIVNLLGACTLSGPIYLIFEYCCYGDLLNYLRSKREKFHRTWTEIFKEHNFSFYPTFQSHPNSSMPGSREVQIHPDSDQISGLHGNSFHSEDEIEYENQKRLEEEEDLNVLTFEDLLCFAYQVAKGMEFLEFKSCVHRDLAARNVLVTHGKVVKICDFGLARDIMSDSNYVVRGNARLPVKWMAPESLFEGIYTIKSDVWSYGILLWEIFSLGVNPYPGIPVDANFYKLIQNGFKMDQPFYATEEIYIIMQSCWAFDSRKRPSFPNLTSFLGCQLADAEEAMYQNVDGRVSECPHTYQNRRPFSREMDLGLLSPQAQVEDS
# T1 sequence (Q15561 whole entry, the tested form may be a part): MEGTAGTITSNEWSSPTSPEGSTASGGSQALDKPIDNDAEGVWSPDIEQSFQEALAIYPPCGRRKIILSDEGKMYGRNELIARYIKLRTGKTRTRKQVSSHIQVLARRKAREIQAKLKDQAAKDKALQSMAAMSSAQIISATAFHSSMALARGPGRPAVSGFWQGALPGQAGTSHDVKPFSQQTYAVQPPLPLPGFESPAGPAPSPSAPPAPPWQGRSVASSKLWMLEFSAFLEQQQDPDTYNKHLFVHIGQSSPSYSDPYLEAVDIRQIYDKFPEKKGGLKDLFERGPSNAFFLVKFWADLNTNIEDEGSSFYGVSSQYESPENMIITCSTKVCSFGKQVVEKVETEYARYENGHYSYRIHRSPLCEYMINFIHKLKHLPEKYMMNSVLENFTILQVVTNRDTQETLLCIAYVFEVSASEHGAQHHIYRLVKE
# Chain of Protein kinase C iota type (Homo sapiens) (P41743 whole entry, the tested form may be a part): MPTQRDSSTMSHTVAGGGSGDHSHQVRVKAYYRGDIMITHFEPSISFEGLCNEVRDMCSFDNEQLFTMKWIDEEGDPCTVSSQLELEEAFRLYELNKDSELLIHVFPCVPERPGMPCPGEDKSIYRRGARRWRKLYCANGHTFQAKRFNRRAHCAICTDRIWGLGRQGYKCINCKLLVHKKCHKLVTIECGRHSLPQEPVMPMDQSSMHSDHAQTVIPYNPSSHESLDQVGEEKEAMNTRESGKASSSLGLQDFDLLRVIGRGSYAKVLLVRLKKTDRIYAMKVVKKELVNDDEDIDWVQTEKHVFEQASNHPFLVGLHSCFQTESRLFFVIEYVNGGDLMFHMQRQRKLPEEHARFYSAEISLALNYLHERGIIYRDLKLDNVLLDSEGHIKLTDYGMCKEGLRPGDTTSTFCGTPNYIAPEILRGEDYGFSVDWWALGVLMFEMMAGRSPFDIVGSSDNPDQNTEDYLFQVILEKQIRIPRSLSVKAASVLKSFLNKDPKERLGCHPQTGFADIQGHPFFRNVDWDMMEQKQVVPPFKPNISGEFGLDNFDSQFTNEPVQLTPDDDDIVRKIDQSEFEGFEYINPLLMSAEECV
# Chain of DNA (cytosine-5)-methyltransferase 1 (Homo sapiens) (P26358 whole entry): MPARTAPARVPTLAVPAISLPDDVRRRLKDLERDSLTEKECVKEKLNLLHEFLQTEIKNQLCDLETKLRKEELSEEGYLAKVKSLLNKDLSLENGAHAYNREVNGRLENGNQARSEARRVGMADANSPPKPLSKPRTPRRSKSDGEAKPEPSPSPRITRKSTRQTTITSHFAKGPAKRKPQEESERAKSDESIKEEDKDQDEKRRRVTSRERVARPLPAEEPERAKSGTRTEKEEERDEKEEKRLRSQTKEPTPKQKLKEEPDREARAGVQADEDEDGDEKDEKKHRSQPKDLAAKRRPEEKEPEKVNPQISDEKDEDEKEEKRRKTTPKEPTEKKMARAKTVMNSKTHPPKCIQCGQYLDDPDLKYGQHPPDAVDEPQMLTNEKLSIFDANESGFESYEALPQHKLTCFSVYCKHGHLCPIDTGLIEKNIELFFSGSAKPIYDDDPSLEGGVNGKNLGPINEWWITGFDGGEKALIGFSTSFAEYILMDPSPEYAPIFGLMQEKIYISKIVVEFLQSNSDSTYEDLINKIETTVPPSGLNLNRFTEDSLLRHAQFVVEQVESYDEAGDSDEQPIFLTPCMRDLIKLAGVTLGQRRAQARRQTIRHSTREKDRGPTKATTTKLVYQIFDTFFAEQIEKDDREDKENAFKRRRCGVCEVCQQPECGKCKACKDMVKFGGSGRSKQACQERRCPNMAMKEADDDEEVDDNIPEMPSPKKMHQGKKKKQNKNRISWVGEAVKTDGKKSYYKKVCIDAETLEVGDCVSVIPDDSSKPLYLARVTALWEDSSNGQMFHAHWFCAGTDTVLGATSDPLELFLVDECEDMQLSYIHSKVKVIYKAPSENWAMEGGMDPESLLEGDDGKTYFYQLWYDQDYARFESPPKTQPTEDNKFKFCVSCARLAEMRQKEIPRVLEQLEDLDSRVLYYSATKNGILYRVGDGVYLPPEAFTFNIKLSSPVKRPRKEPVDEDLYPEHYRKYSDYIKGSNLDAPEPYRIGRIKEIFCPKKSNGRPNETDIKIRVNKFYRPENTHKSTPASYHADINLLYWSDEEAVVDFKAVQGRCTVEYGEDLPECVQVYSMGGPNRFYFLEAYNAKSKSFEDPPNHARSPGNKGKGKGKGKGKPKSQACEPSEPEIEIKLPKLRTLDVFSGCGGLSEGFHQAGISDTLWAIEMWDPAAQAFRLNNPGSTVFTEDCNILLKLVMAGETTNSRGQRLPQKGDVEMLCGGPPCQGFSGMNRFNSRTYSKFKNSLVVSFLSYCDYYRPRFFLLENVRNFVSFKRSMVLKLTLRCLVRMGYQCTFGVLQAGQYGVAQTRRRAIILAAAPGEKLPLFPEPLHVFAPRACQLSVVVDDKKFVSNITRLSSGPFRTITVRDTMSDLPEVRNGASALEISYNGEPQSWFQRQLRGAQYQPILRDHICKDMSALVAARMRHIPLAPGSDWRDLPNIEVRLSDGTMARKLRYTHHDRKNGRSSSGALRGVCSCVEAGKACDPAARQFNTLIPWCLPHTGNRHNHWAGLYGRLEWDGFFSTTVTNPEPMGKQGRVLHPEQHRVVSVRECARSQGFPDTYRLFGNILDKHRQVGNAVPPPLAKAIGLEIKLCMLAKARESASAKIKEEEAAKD
# Chain of Interferon-induced, double-stranded RNA-activated protein kinase (Homo sapiens) (P19525 whole entry, the tested form may be a part): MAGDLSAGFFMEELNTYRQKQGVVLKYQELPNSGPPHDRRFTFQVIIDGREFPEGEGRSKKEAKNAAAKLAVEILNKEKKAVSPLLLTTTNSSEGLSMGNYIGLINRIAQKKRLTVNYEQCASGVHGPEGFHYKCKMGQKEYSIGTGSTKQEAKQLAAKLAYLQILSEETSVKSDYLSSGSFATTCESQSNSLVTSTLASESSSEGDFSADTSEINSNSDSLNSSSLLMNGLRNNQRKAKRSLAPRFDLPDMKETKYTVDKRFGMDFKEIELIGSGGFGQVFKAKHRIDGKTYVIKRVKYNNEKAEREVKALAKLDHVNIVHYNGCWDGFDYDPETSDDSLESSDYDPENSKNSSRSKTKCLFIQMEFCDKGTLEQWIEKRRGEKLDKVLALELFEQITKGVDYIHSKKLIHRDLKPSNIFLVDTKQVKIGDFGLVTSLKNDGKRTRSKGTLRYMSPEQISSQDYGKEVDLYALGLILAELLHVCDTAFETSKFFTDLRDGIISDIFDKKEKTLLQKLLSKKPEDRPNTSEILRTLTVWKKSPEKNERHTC
# Chain of Glycogen synthase kinase-3 beta (Homo sapiens), P49841 [UNDEFINED MUTATION] (P49841 whole entry, looked up, stated change not applied): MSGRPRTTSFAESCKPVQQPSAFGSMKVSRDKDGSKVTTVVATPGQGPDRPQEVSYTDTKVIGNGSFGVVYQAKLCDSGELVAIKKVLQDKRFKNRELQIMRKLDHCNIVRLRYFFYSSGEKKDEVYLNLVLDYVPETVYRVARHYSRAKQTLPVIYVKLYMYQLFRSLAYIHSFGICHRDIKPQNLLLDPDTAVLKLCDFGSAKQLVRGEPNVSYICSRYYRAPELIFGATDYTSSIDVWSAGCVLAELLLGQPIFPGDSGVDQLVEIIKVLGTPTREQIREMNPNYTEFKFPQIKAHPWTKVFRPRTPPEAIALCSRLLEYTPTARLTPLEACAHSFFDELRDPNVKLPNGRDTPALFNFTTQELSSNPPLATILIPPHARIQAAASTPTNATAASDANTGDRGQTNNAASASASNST
# Chain of Transcriptional enhancer factor TEF-3 (Homo sapiens), Q15561 [C330A] (Q15561 whole entry C330A): as the sequence (Q15561 whole entry, the tested form may be a part) above, with C330A counted along it
smiles,measurement,setting,value
C=CS(=O)(=O)Nc1ccc(Cc2ccc3ccccc3c2)cc1,inhibition,[1],-9%
same,ΔTm,[2],7.5 °C
same,inhibition,[3],-4%
same,inhibition,[4],2%
same,inhibition,[5],-8%
same,inhibition,[6],5%
same,ΔTm,[7],6.4 °C
same,inhibition,[8],-5%
same,inhibition,[9],2%
same,inhibition,[10],-9%
same,inhibition,[11],-6%
same,inhibition,[12],5%
same,inhibition,[13],1%
same,Activity,[14],Active
same,inhibition,[15],-8%
same,inhibition,[16],Active
same,inhibition,[17],15%
same,inhibition,[18],-2%
same,inhibition,[19],3%
same,Activity,[20],inactive
same,inhibition,[21],5%
same,inhibition,[22],-1%
same,inhibition,[23],22%
same,inhibition,[24],-1%
same,inhibition,[25],8%
